According to ChEMBL document CHEMBL1201862, “PubChem BioAssay data set” (2004):
Active and inactive are the calls of the source.

Assays:
[1] = Vero cell cytotoxicity, dose response, cytotoxicity control for Vif-APOBEC3G degradation inhibitor project, Vero cells (AID 1117358); format: functional; details: Human immunodeficiency virus 1, Vero
[2] = HEp-2 cell cytotoxicity, dose response, cytotoxicity control for RSV inhibitor project, HTS (AID 2410); format: functional; details: human respiratory syncytial virus
[3] = system: P388/ADR; experiment: cells; format: functional; details: Mus musculus
[4] = system: Streptococcus sp. 'group A'; experiment: growth inhibition of control SK(-) GAS strain, dose response, counter-screen for streptokinase expression inhibitor project, luminescence, kanamycin, BacTiterGlo, confirmation (AID 1900); format: functional, organism-based
[5] = growth suppression of beta-catenin-knockout colon cells, dose response, cell-based, HCT116, human colon tumor (AID 1045); format: functional;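 further: HCT116 colon tumor cells with beta catenin knocked out; cells exposed to compound for 60 hours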
[6] = biological target: Dual specificity tyrosine-phosphorylation-regulated kinase 1A (Rattus norvegicus, UniProt Q63470); format: biochemical, Homo sapiens
[7] = biological target: Galanin receptor type 2 (Homo sapiens, UniProt O43603); experiment: Dose Response cell-based high-throughput screening assay to identify agonists of galanin receptor 2 (GALR2). [Related pubchem assays: 864 ]; format: functional
[8] = biological target: Cytochrome P450 2C9 (Homo sapiens, UniProt P11712); details: Potency
[9] = growth suppression of PTEN-null colon cells, dose response, cell-based, HCT116 PTEN knockout (AID 1047); format: functional;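 further: HCT116 colon tumor cells with PTEN knocked out; cells exposed to compound for 60 hours before readout; potency for loss of cell viability measured by luminescence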
[10] = cytotoxicity in HPDE-C7 cells, cell-based, fluorescence, HTS (AID 430); format: functional; details: Homo sapiens
[11] = system: SN12K1; experiment: cells; format: functional; details: Homo sapiens
[12] = Luminescence Cell-Based Dose Response HTS to Identify Inhibitors of 5'UTR Stem-Loop Driven Prion Protein mRNA Translation in H4 Neuroglioblastoma Cells. [Related pubchem assays: 1827 (Project Summary), 1813 (Primary HTS)]; format: functional
[13] = system: Streptococcus; experiment: Group A Streptococcus viability loss, dose response, counter-screen for streptokinase expression inhibitor project, luminescence, BacTiterGlo (AID 1915); format: functional, organism-based;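 further: potency for reduction of bacterial viability or growth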
[14] = system: INS1; experiment: beta cell apoptosis inhibitors, cytokine rescue, dose response, luminescence, retest (AID 449756); format: functional, cell-based; details: Rattus norvegicus;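 further: cell death triggered by IL-1 beta plus TNF-alpha plus IFN-gamma mixture; protective hits raise ATP signal compared with cytokine alone wells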
[15] = cytotoxicity in KRAS-transformed pancreatic duct cells, primary screen, cell-based, fluorescence, HTS (AID 431); format: functional; details: Homo sapiens;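 further: cell line used: HPDE-C7K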
[16] = biological target: T1, Streptokinase A (Streptococcus pyogenes serotype M1, UniProt P10520); experiment: S. pyogenes streptokinase expression inhibitors, potency, dose response, plasminogen activation absorbance, OD405 (AID 1914); format: functional, Streptococcus pyogenes M1 GAS;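 further: secreted streptokinase activity via plasminogen activation per viability signal from cell pellet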
T1 sequence (P10520 whole entry): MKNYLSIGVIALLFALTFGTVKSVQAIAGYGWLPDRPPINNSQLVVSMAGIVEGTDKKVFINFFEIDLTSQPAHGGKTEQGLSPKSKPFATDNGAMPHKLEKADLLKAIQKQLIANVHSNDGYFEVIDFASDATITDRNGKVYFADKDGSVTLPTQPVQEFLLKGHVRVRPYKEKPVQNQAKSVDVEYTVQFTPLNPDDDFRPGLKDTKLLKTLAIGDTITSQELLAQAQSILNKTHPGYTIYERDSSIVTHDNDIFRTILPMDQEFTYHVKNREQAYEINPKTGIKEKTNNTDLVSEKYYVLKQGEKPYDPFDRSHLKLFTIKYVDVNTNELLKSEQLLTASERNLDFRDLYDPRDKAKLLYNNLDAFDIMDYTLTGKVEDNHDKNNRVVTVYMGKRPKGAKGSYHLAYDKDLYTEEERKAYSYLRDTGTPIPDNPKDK

[17] = system: P388; experiment: cells; format: functional; details: Mus musculus
[18] = biological target: Voltage-dependent T-type calcium channel subunit alpha-1H (Homo sapiens, UniProt O95180); format: functional;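 further: channel activity triggered by adding a high calcium stimulation buffer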
[19] = biological target: Protein Tat (Human immunodeficiency virus type 1 group M subtype B (isolate HXB2)(HIV-1), UniProt P04608); format: functional;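 further: tat binding to TAR RNA read out by fluorescence polarization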
[20] = HeLa cell cytotoxicity, dose response, cytotoxicity control for MgcRacGAP inhibitor project (AID 624300); format: functional
[21] = system: Vero; experiment: Vero cell cytotoxicity, cytotoxicity control for flavivirus capping enzyme inhibitors (AID 588742); format: functional; details: Chlorocebus sabaeus
[22] = cytotoxicity toward NIH3T3 fibroblasts, dose response, counter-screen, cell-based, ATP luminescence, mouse fibroblasts (AID 2010); format: functional;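 further: cells exposed to compound for about 90 hours before reading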
[23] = biological target: T2, Mannose-6-phosphate isomerase (Homo sapiens, UniProt P34949); experiment: human PMI inhibitors, high substrate, primary screen, biochemical, fluorescence intensity, high mannose 6-phosphate (AID 1220)
T2 sequence (P34949 whole entry): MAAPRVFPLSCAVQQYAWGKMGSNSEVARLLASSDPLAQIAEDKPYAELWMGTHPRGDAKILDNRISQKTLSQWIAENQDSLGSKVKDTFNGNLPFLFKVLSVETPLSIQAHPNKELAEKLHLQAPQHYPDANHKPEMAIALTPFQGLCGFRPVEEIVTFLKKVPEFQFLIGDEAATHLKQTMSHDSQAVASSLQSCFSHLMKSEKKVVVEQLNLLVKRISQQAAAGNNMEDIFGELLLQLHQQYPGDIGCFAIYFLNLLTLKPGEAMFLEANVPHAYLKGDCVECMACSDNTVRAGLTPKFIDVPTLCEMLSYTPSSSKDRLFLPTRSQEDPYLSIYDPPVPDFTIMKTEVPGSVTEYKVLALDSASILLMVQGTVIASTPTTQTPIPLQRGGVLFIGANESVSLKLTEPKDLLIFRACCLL

[24] = biological target: Genome polyprotein (dengue virus type 2, UniProt P29990); experiment: Dengue-2 NS5 methyltransferase inhibitors, primary screen, biochemical, confirmation dose response (AID 588689); format: functional
[25] = biological target: Induced myeloid leukemia cell differentiation protein Mcl-1 (Homo sapiens, UniProt Q07820); experiment: Mcl-1/Noxa binding inhibitor potency, dose response, biochemical, TR-FRET (AID 1417); format: functional
[26] = biological target: T2, Mannose-6-phosphate isomerase; experiment: inhibitors of human PMI, primary screen, biochemical, fluorescence intensity, coupled assay (AID 1209)
[27] = inhibitors of intracellular T. cruzi replication, confirmation, NIH3T3 host cells, beta-gal luminescence (AID 2044); format: functional, cell-based;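 further: intracellular parasites grown in NIH/3T3 mouse fibroblasts as host cells; luminescent beta-galactosidase reporter signal from transgenic T. cruzi replicating inside host cells; inhibitors lower the luminescence signal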
[28] = biological target: 14-3-3 protein gamma (Homo sapiens, UniProt P61981); experiment: modulators of 14-3-3 gamma client binding – dose response (AID 711); format: functional
[29] = P. falciparum 3D7-ScDHODH growth inhibitors, dose response, SYBR Green, dry powder samples (AID 1159570); format: functional, cell-based;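 further: parasite growth measured after 72 hours of compound exposure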
[30] = P. falciparum Dd2 growth inhibitors, dose response, SYBR Green, dry powder samples (AID 1159566); format: functional, cell-based;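 further: potency for growth inhibition with lower SYBR green DNA signal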
[31] = HepG2 cell cytotoxicity, dose response, cytotoxicity control, plate reader, dry powder samples (AID 1159569); format: functional, cell-based;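 further: inhibitor potency with signal falling toward the positive control level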
[32] = P. falciparum Dd2 growth inhibitors, dose response, SYBR Green, dry powder samples, set 9 (AID 1159568); format: functional, cell-based
[33] = Plasmodium falciparum Dd2 Sybr green parasite growth Measured in Cell-Based and Microorganism Combination System Using Plate Reader - 2153-01_Inhibitor_Dose_DryPowder_Activity_Set3.; format: functional
[34] = P. falciparum Dd2 growth inhibitors, dose response, SYBR Green, cherry-picked samples (AID 1159567); format: functional, cell-based
[35] = P. falciparum ATP4 D1247Y mutant growth inhibitors, dose response, NITD609-resistant line, SYBR Green, dry powder (AID 1159571); format: functional, cell-based;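 further: parasites synchronized at ring stage by sorbitol before testing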
[36] = Jurkat T cell cytotoxicity, dose response, cytotoxicity control for P. falciparum gametocyte viability project, luminescence (AID 1117277); format: functional, cell-based;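 further: potency reflects loss of cellular ATP meaning fewer viable cells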
[37] = P. falciparum late gametocyte killing, dose response, luminescence (AID 1117278); format: functional, cell-based;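 further: gametocytes exposed to compound for 24 hours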

Sequence of Induced myeloid leukemia cell differentiation protein Mcl-1 (Q07820 whole entry): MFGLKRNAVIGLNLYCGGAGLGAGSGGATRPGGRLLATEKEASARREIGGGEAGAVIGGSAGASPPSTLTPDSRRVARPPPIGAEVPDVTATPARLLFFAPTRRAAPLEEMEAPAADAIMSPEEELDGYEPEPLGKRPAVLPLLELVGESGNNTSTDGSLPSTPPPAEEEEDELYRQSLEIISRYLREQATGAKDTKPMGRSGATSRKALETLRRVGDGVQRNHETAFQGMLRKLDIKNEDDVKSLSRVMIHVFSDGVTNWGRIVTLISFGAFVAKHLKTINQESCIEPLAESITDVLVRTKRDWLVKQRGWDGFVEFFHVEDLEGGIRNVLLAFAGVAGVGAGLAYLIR
Sequence of Voltage-dependent T-type calcium channel subunit alpha-1H (O95180 whole entry): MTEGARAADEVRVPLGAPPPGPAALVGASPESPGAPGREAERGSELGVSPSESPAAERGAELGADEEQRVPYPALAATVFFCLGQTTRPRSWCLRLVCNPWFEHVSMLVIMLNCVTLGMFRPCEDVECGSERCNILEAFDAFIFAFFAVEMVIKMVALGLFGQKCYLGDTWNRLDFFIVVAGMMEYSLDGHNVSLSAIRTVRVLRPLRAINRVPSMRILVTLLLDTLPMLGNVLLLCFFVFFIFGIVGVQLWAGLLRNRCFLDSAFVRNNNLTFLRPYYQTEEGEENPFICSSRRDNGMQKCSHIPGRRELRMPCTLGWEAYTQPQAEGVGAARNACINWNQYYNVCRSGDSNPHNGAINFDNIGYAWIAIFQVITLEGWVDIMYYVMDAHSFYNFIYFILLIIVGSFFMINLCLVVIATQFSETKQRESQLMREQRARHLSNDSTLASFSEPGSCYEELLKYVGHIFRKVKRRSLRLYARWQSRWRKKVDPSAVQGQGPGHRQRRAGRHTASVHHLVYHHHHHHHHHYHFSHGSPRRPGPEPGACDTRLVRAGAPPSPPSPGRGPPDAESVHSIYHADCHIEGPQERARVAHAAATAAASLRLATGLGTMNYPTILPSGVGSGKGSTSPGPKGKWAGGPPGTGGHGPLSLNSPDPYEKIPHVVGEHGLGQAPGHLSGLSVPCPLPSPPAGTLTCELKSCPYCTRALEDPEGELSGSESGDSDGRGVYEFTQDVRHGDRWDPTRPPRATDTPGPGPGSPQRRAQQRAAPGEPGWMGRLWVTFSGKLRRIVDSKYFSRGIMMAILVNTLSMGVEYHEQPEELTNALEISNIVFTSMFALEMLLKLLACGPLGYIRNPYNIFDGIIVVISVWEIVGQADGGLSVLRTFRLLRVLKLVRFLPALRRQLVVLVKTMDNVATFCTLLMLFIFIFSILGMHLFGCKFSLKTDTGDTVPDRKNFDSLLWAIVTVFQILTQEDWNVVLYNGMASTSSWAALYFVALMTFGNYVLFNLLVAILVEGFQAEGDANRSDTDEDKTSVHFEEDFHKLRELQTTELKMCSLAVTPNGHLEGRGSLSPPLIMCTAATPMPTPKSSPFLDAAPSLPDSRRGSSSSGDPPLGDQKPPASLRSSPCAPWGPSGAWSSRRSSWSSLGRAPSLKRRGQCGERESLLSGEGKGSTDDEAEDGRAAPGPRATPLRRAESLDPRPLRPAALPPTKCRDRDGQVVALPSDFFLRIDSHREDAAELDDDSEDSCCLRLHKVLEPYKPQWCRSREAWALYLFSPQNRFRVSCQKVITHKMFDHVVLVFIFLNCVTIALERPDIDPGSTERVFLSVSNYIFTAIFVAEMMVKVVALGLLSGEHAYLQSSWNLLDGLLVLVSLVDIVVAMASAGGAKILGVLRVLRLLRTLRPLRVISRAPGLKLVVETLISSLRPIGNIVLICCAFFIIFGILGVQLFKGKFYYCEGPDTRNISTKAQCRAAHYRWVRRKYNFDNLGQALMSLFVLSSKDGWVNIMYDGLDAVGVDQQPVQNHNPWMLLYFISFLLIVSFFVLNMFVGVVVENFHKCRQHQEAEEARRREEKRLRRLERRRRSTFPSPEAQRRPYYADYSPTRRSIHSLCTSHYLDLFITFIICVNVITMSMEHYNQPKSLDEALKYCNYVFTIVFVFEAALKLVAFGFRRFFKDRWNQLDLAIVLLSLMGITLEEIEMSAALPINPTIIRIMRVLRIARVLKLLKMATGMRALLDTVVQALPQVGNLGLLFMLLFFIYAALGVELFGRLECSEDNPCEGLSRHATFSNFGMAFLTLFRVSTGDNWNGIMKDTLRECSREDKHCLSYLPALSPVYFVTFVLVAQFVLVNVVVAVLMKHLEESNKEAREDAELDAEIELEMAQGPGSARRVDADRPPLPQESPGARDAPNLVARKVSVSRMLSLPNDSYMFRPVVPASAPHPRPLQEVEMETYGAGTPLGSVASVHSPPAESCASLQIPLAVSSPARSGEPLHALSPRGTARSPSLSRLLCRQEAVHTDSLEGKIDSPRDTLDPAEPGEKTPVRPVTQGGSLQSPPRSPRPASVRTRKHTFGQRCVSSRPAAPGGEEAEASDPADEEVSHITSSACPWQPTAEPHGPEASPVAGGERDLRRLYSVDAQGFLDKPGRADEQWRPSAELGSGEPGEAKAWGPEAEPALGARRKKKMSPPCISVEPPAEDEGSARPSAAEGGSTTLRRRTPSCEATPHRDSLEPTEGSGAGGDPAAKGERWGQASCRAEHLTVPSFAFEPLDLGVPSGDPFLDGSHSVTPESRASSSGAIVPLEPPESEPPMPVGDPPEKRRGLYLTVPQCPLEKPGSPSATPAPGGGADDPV
Sequence of Protein Tat (P04608 whole entry): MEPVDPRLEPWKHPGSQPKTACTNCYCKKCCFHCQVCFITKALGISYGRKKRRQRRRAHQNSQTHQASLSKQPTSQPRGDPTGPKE
Sequence of Cytochrome P450 2C9 (P11712 whole entry): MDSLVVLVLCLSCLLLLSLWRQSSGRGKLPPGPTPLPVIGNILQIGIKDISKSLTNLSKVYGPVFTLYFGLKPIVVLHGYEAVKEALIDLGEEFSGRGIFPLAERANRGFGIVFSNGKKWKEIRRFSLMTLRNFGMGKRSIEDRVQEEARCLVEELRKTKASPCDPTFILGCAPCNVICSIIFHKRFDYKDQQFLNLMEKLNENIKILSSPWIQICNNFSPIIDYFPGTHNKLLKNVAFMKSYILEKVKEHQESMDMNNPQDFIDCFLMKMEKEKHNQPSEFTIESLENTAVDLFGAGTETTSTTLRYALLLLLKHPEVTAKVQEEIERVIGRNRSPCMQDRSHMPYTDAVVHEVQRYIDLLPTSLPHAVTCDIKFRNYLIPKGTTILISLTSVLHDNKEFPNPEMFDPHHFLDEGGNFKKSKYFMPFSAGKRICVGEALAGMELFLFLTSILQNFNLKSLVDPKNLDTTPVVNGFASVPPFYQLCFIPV
Sequence of Galanin receptor type 2 (O43603 whole entry): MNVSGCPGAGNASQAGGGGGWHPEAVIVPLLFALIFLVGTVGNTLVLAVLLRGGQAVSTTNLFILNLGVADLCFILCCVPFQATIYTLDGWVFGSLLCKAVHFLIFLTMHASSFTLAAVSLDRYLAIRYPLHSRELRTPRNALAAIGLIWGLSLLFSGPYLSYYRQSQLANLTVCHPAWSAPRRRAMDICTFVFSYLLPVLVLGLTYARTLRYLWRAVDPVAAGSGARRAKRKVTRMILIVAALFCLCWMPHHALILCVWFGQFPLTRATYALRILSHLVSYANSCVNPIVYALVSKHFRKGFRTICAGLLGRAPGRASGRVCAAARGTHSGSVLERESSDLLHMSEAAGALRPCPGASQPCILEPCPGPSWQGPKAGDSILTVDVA
Sequence of 14-3-3 protein gamma (P61981 whole entry): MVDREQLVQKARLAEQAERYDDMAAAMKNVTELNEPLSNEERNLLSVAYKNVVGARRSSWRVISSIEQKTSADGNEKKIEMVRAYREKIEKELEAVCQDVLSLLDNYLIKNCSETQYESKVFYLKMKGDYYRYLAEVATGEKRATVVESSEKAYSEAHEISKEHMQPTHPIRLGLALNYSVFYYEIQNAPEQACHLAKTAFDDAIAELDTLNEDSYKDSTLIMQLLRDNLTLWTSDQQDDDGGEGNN
Sequence of Genome polyprotein (P29990 2492-3391 limits assumed): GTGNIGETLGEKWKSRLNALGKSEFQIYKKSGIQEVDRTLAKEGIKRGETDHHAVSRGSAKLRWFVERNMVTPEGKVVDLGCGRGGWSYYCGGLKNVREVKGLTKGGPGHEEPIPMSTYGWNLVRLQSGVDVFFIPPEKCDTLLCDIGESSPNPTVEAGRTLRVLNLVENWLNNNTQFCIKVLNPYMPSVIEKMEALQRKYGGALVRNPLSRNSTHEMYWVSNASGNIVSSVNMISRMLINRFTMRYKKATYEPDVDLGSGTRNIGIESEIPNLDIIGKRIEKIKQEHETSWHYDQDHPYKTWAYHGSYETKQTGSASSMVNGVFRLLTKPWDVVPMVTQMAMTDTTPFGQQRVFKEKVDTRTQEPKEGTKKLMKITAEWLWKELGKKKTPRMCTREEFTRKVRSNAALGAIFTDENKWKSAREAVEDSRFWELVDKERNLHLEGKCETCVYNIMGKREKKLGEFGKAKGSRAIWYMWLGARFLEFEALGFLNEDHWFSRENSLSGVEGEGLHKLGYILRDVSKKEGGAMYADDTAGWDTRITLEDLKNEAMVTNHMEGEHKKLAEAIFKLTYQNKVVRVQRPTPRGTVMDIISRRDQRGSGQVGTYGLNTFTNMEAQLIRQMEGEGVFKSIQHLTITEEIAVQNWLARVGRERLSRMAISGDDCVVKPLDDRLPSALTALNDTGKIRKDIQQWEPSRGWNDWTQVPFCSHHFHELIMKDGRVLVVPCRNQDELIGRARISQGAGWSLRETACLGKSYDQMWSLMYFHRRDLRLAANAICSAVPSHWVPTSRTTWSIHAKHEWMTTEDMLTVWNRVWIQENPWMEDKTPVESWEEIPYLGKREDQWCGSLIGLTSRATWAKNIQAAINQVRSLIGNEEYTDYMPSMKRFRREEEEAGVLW

Compound: Cn1nc(C(F)(F)F)c(C#N)c1N1CCN(c2ccc(F)cc2)CC1
- CC50 [1]: > 40 µM (active)
- CC50 [2]: 8.85 µM (active)

Compound: Cc1c2ccncc2c(C)c2c1[nH]c1ccccc12 [ELLIPTECINE]
- GI50 [3]: 0.824 µM (active)
- EC50 [4]: 2.25 µM (active)
- EC50 [5]: 0.117 µM (active)
- AC50 [6]: 0.231 µM (active)
- EC50 [7]: > 55.7 µM (not active)
- AC50 [8]: 39.8 µM (inconclusive)
- EC50 [9]: 0.177 µM (active)
- EC50 [10]: 6.17 µM (active)
- GI50 [11]: 0.56 µM (active)
- EC50 [12]: > 120 µM (not active)
- EC50 [13]: 7.7 µM (active)
- AC50 [14]: 2.12 µM (active)
- EC50 [15]: 2.4 µM (active)
- EC50 [16]: > 150 µM (not active)
- GI50 [17]: 0.383 µM (active)
- EC50 [18]: 3.99 µM (active)

Compound: CCOc1ccc(-n2c(Cc3cc(O)nc(O)n3)nnc2SCC(=O)NC2CCCC2)cc1
- IC50 [19]: > 100 µM (active)

Compound: CCOc1c(Cl)cc(CNc2ccc(N3CCCC3)cc2)cc1OC
- CC50 [20]: 100 µM (active)
- CC50 [21]: 27.8 µM (active)
- EC50 [22]: > 60 µM (not active)
- IC50 [23]: 37.7 µM (active)
- IC50 [24]: 93.2 µM (active)
- IC50 [25]: 2.69 µM (active)
- IC50 [26]: 3.93 µM (active)
- EC50 [27]: 4.98 µM (active)

Compound: O=C(Cn1cc2c(n1)CCCC2)NCc1ccccn1
- IC50 [28]: 25.6 µM (active)

Compound: COc1ccccc1CN1C[C@@H](C)[C@H](OC)CN(C)C(=O)c2ccc(NC(=O)Nc3ccccc3OC)cc2OC[C@H]1C
- AC50 [29]: 2.1 µM (active)
- AC50 [30]: 0.0185 µM (active)
- AC50 [31]: > 100 µM (inactive)
- AC50 [32]: 0.116 µM (active)
- AC50 [33]: 0.189 µM (active)
- AC50 [34]: < 0.3 µM (active)
- AC50 [35]: 0.163 µM (active)

Compound: COc1ccc(C2CC(c3cccs3)=NN2C(=O)CSc2nnc(N)s2)cc1OC (configuration not stated)
- IC50 [36]: > 83.3 µM (inactive)
- IC50 [37]: > 109 µM (inactive)
